Data taken from patent US20240116985A1, “STAPLED PEPTIDES AND METHODS THEREOF” (priority 2020, published 2024).

Experiments:
[1] = molecular target: T1, full-length beta-Catenin (Uniprot ID P35222) (Homo sapiens, UniProt P35222); assay: Fluorescence polarization IC50 (beta-catenin / 5FAM-TCF4 10-53 competition); type: binding; settings: fluorescence polarization; read-out: beta-Catenin FP IC50
T1 construct: 10 nM full-length beta-Catenin (Uniprot ID P35222)
T1 sequence (P35222 1-781): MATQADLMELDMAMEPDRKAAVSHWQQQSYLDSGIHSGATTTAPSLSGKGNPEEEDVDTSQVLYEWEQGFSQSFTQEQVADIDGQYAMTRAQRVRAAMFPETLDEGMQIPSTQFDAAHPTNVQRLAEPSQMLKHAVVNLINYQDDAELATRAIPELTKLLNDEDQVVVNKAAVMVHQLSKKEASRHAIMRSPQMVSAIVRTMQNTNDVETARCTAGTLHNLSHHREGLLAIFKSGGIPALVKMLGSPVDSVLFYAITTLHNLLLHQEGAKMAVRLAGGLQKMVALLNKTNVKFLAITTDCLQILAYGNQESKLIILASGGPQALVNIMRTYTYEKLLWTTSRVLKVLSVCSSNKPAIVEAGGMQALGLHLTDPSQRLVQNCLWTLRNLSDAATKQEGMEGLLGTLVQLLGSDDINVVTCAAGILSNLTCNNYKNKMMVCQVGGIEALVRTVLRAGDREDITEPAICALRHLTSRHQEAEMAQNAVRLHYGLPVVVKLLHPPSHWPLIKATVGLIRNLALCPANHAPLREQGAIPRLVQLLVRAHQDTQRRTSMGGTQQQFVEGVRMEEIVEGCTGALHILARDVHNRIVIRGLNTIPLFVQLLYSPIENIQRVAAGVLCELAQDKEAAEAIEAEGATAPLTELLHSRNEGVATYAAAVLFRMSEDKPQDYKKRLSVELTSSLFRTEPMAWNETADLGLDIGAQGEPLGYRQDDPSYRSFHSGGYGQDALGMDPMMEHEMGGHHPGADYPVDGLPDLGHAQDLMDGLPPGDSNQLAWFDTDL

[2] = molecular target: T2, beta-catenin/TCF4 engagement (Homo sapiens, UniProt P35222); assay: Nano-BRET target engagement assay (B-cat-Halo & TCF4-Luc in HEK293 cells); type: cell-based; settings: absolute IC50; read-out: NanoBRET Abs IC50
T2 construct: expressed in transfected cells; host or cells: HEK293
T2 sequence (P35222 1-781): T1 sequence (P35222 1-781)

**Q.** What does the source list for `CCCC[C@@H]1NC(=O)[C@H](CC(=O)O)NC(=O)[C@]2(CC=CCCCC3(CCCC=CCCCOC(=O)N4CC[C@@](C(=O)N[C@@H](Cc5ccsc5)C(=O)N[C@@H](Cc5csc6ccccc56)C(=O)N[C@@H](CCC(N)=O)C(N)=O)(C4)NC(=O)[C@H](CCCC)NC(=O)[C@H](Cc4ccccc4)NC(=O)[C@H](C)NC(=O)[C@H](C)NC(=O)[C@H](CC(=O)O)NC(=O)[C@H](CC(=O)O)NC3=O)NC1=O)CCCN2C(C)=O` (stereo partly drawn) [I-1401, Ac-PL3-Asp-nLeu-B5-Asp-Asp-Ala-Ala-Phe-nLeu-PyrS2-3Thi-BztA-Gln-NH2]?
**A.** IC50 [1]: 0.005 µM; IC50 [2]: 21.4 µM

**Q.** With `CCCC[C@@H]1NC(=O)[C@H](CC(=O)O)NC(=O)[C@]2(CC=CCCCC3(CCCC=CCCCOC(=O)N4CC[C@@](C(=O)N[C@@H](Cc5ccccc5)C(=O)N[C@@H](Cc5csc6ccccc56)C(=O)N[C@@H](CCC(N)=O)C(N)=O)(C4)NC(=O)[C@H](CC(C)C)NC(=O)[C@H](Cc4ccccc4)NC(=O)[C@H](C)NC(=O)[C@H](C)NC(=O)[C@H](CC(=O)O)NC(=O)[C@H](CC(=O)O)NC3=O)NC1=O)CCCN2C(C)=O` (stereo partly drawn) [I-1403, Ac-PL3-Asp-nLeu-B5-Asp-Asp-Ala-Ala-Phe-Leu-PyrS2-Phe-BztA-Gln-NH2] as the compound, how does the IC50 [1] read?
**A.** 0.006 µM

**Q.** What about the IC50 [2] of the same compound?
**A.** 29.1 µM

**Q.** With `CCCC[C@@H]1NC(=O)[C@H](Cc2ccccc2)NC(=O)[C@H](C)NC(=O)[C@H](C)NC(=O)[C@H](CC(=O)O)NC(=O)[C@H](CC(=O)O)NC(=O)C2(CCCC=CCCCOC(=O)N3CC[C@@](C(=O)N[C@@H](Cc4ccccc4)C(=O)N[C@@H](Cc4csc5ccccc45)C(=O)N[C@@H](CCC(N)=O)C(N)=O)(C3)NC1=O)CCCC=CC[C@]1(CCCN1C(C)=O)C(=O)N[C@@H](CC(=O)O)C(=O)N[C@@H](CC(C)C)C(=O)N2` (stereo partly drawn) [I-1404, Ac-PL3-Asp-Leu-B5-Asp-Asp-Ala-Ala-Phe-nLeu-PyrS2-Phe-BztA-Gln-NH2] as the compound, how does the IC50 [1] read?
**A.** 0.113 µM

**Q.** What about the IC50 [2] of the same compound?
**A.** 36.8 µM

**Q.** Which results are given for `CCCC[C@@H]1NC(=O)[C@H](CC(=O)O)NC(=O)[C@]2(CC=CCCCC3(CCCC=CCCCOC(=O)N4CC[C@@](C(=O)N[C@@H](Cc5ccccc5)C(=O)N[C@@H](Cc5csc6ccccc56)C(=O)N[C@@H](CCC(N)=O)C(N)=O)(C4)NC(=O)[C@H](CCCC)NC(=O)[C@H](Cc4ccccc4)NC(=O)[C@H](C)NC(=O)[C@H](C)NC(=O)[C@H](CC(=O)O)NC(=O)[C@H](CC(=O)O)NC3=O)NC1=O)CCCN2C(C)=O` (stereo partly drawn) [I-1405, Ac-PL3-Asp-nLeu-B5-Asp-Asp-Ala-Ala-Phe-nLeu-PyrS2-Phe-BztA-Gln-NH2]?
**A.** IC50 [1]: 0.009 µM; IC50 [2]: 40.1 µM

**Q.** How did the IC50 [1] turn out when `CC(=O)N1CCC[C@]12CC=CCCCC1(CCCC=CCCCOC(=O)N3CC[C@@](C(=O)N[C@@H](Cc4ccsc4)C(=O)N[C@@H](Cc4csc5ccccc45)C(=O)N[C@@H](CCC(N)=O)C(N)=O)(C3)NC(=O)[C@H](CC(C)C)NC(=O)[C@H](Cc3ccccc3)NC(=O)[C@H](C)NC(=O)[C@H](C)NC(=O)[C@H](Cc3cccc(C(=O)O)c3)NC(=O)[C@H](CC(=O)O)NC1=O)NC(=O)[C@H](CC(C)C)NC(=O)[C@H](CC(=O)O)NC2=O` (stereo partly drawn) [I-1406, Ac-PL3-Asp-Leu-B5-Asp-3COOHF-Ala-Ala-Phe-Leu-PyrS2-3Thi-BztA-Gln-NH2] was run?
**A.** 0.006 µM

**Q.** And the IC50 [2]?
**A.** 5 µM

**Q.** What does the source list for `CCCC[C@@H]1NC(=O)[C@H](Cc2ccccc2)NC(=O)[C@H](C)NC(=O)[C@H](C)NC(=O)[C@H](Cc2cccc(C(=O)O)c2)NC(=O)[C@H](CC(=O)O)NC(=O)C2(CCCC=CCCCOC(=O)N3CC[C@@](C(=O)N[C@@H](Cc4ccsc4)C(=O)N[C@@H](Cc4csc5ccccc45)C(=O)N[C@@H](CCC(N)=O)C(N)=O)(C3)NC1=O)CCCC=CC[C@]1(CCCN1C(C)=O)C(=O)N[C@@H](CC(=O)O)C(=O)N[C@@H](CC(C)C)C(=O)N2` (stereo partly drawn) [I-1407, Ac-PL3-Asp-Leu-B5-Asp-3COOHF-Ala-Ala-Phe-nLeu-PyrS2-3Thi-BztA-Gln-NH2]?
**A.** IC50 [1]: 0.005 µM; IC50 [2]: 4.2 µM
